Reference: PubChem BioAssay (NCI)
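Five concentrations, 48 hours, 96-well plates. GI50 is the concentration that inhibits growth by half. TGI marks complete inhibition of growth.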

Assays:
Assay in all cases: NCI tumour cell line growth inhibition, 48 h
786-0 renal = system: 786-0 renal
A498 renal = system: A498 renal
A549 NSCLC = system: A549 NSCLC
ACHN renal = system: ACHN renal
BT-549 breast = system: BT-549 breast
CAKI-1 renal = system: CAKI-1 renal
CCRF-CEM leukemia = system: CCRF-CEM leukemia
COLO 205 colon = system: COLO 205 colon
DU-145 prostate = system: DU-145 prostate
EKVX NSCLC = system: EKVX NSCLC
HCT-116 colon = system: HCT-116 colon
HCT-15 colon = system: HCT-15 colon
HL-60(TB) leukemia = system: HL-60(TB) leukemia
HOP-62 NSCLC = system: HOP-62 NSCLC
HOP-92 NSCLC = system: HOP-92 NSCLC
HS 578T breast = system: HS 578T breast
HT29 colon = system: HT29 colon
IGROV1 ovarian = system: IGROV1 ovarian
K-562 leukemia = system: K-562 leukemia
KM12 colon = system: KM12 colon
LOX IMVI melanoma = system: LOX IMVI melanoma
M14 melanoma = system: M14 melanoma
MALME-3M melanoma = system: MALME-3M melanoma
MCF7 breast = system: MCF7 breast
MDA-MB-231 breast = system: MDA-MB-231 breast
MDA-MB-435 = system: MDA-MB-435
MOLT-4 leukemia = system: MOLT-4 leukemia
NCI-H226 lung = system: NCI-H226 lung
NCI-H23 lung = system: NCI-H23 lung
NCI-H460 lung = system: NCI-H460 lung
NCI-H522 lung = system: NCI-H522 lung
NCI/ADR-RES ovarian = system: NCI/ADR-RES ovarian
OVCAR-3 ovarian = system: OVCAR-3 ovarian
OVCAR-4 ovarian = system: OVCAR-4 ovarian
OVCAR-5 ovarian = system: OVCAR-5 ovarian
OVCAR-8 ovarian = system: OVCAR-8 ovarian
PC-3 prostate = system: PC-3 prostate
RPMI-8226 leukemia = system: RPMI-8226 leukemia
RXF 393 renal = system: RXF 393 renal
SF-268 CNS = system: SF-268 CNS
SF-295 CNS = system: SF-295 CNS
SF-539 CNS = system: SF-539 CNS
SK-MEL-2 melanoma = system: SK-MEL-2 melanoma
SK-MEL-28 melanoma = system: SK-MEL-28 melanoma
SK-MEL-5 melanoma = system: SK-MEL-5 melanoma
SK-OV-3 ovarian = system: SK-OV-3 ovarian
SN12C renal = system: SN12C renal
SNB-19 CNS = system: SNB-19 CNS
SNB-75 CNS = system: SNB-75 CNS
SR leukemia = system: SR leukemia
SW-620 colon = system: SW-620 colon
T-47D breast = system: T-47D breast
TK-10 renal = system: TK-10 renal
U251 CNS = system: U251 CNS
UACC-257 melanoma = system: UACC-257 melanoma
UACC-62 melanoma = system: UACC-62 melanoma
UO-31 renal = system: UO-31 renal

**Q.** How did the GI50 (786-0 renal) turn out when CCOC(=O)c1c(C)n([O-])c2cc(F)c(F)cc2[n+]1=O was run?
**A.** 6730 nM

**Q.** And the TGI (786-0 renal)?
**A.** 19800 nM

**Q.** And the GI50 (A498 renal)?
**A.** 15900 nM

**Q.** What about the TGI (A498 renal) of the same compound?
**A.** 30000 nM

**Q.** And the GI50 (A549 NSCLC)?
**A.** 6780 nM

**Q.** And the TGI (A549 NSCLC)?
**A.** 26000 nM

**Q.** What about the GI50 (ACHN renal) of the same compound?
**A.** 1730 nM

**Q.** And the TGI (ACHN renal)?
**A.** 3230 nM

**Q.** What about the GI50 (BT-549 breast) of the same compound?
**A.** 1840 nM

**Q.** What about the TGI (BT-549 breast) of the same compound?
**A.** 3640 nM

**Q.** What about the GI50 (CAKI-1 renal) of the same compound?
**A.** 1630 nM

**Q.** What about the TGI (CAKI-1 renal) of the same compound?
**A.** 3040 nM

**Q.** What about the GI50 (CCRF-CEM leukemia) of the same compound?
**A.** 1100 nM

**Q.** What about the TGI (CCRF-CEM leukemia) of the same compound?
**A.** 7840 nM

**Q.** What about the GI50 (COLO 205 colon) of the same compound?
**A.** 1940 nM

**Q.** And the TGI (COLO 205 colon)?
**A.** 4540 nM

**Q.** And the GI50 (DU-145 prostate)?
**A.** 3270 nM

**Q.** And the TGI (DU-145 prostate)?
**A.** 9010 nM

**Q.** What about the GI50 (EKVX NSCLC) of the same compound?
**A.** 1960 nM

**Q.** What about the TGI (EKVX NSCLC) of the same compound?
**A.** 3980 nM

**Q.** What about the GI50 (HCT-116 colon) of the same compound?
**A.** 351 nM

**Q.** And the TGI (HCT-116 colon)?
**A.** 1280 nM

**Q.** And the GI50 (HCT-15 colon)?
**A.** 455 nM

**Q.** What about the TGI (HCT-15 colon) of the same compound?
**A.** 2040 nM

**Q.** And the GI50 (HL-60(TB) leukemia)?
**A.** 105 nM

**Q.** What about the GI50 (HOP-62 NSCLC) of the same compound?
**A.** 2100 nM

**Q.** What about the TGI (HOP-62 NSCLC) of the same compound?
**A.** 3740 nM

**Q.** What about the GI50 (HOP-92 NSCLC) of the same compound?
**A.** 1100 nM

**Q.** What about the TGI (HOP-92 NSCLC) of the same compound?
**A.** 3080 nM

**Q.** What about the GI50 (HS 578T breast) of the same compound?
**A.** 1730 nM

**Q.** What about the TGI (HS 578T breast) of the same compound?
**A.** 5060 nM

**Q.** And the GI50 (HT29 colon)?
**A.** 516 nM

**Q.** What about the TGI (HT29 colon) of the same compound?
**A.** 3190 nM

**Q.** What about the GI50 (IGROV1 ovarian) of the same compound?
**A.** 491 nM

**Q.** What about the GI50 (K-562 leukemia) of the same compound?
**A.** 697 nM

**Q.** What about the TGI (K-562 leukemia) of the same compound?
**A.** > 20400 nM

**Q.** And the GI50 (KM12 colon)?
**A.** 15400 nM

**Q.** And the TGI (KM12 colon)?
**A.** 35600 nM

**Q.** What about the GI50 (LOX IMVI melanoma) of the same compound?
**A.** 514 nM

**Q.** What about the TGI (LOX IMVI melanoma) of the same compound?
**A.** 1630 nM

**Q.** What about the GI50 (M14 melanoma) of the same compound?
**A.** 1090 nM

**Q.** What about the TGI (M14 melanoma) of the same compound?
**A.** 2580 nM

**Q.** And the GI50 (MALME-3M melanoma)?
**A.** 717 nM

**Q.** And the TGI (MALME-3M melanoma)?
**A.** 1830 nM

**Q.** What about the GI50 (MCF7 breast) of the same compound?
**A.** 4320 nM

**Q.** What about the TGI (MCF7 breast) of the same compound?
**A.** > 37400 nM

**Q.** What about the GI50 (MDA-MB-231 breast) of the same compound?
**A.** 955 nM

**Q.** And the TGI (MDA-MB-231 breast)?
**A.** 2580 nM

**Q.** What about the GI50 (MDA-MB-435) of the same compound?
**A.** 1560 nM

**Q.** What about the TGI (MDA-MB-435) of the same compound?
**A.** 3110 nM

**Q.** And the GI50 (MOLT-4 leukemia)?
**A.** 541 nM

**Q.** What about the TGI (MOLT-4 leukemia) of the same compound?
**A.** 6620 nM

**Q.** What about the GI50 (NCI-H226 lung) of the same compound?
**A.** 1940 nM

**Q.** And the TGI (NCI-H226 lung)?
**A.** 3940 nM

**Q.** What about the GI50 (NCI-H23 lung) of the same compound?
**A.** 1880 nM

**Q.** What about the TGI (NCI-H23 lung) of the same compound?
**A.** 3780 nM

**Q.** And the GI50 (NCI-H460 lung)?
**A.** 2880 nM

**Q.** What about the TGI (NCI-H460 lung) of the same compound?
**A.** 15900 nM

**Q.** What about the GI50 (NCI-H522 lung) of the same compound?
**A.** 1040 nM

**Q.** And the TGI (NCI-H522 lung)?
**A.** 2720 nM

**Q.** And the GI50 (NCI/ADR-RES ovarian)?
**A.** 432 nM

**Q.** What about the TGI (NCI/ADR-RES ovarian) of the same compound?
**A.** 1980 nM

**Q.** What about the GI50 (OVCAR-3 ovarian) of the same compound?
**A.** 1100 nM

**Q.** What about the TGI (OVCAR-3 ovarian) of the same compound?
**A.** 2420 nM

**Q.** And the GI50 (OVCAR-4 ovarian)?
**A.** 1720 nM

**Q.** What about the TGI (OVCAR-4 ovarian) of the same compound?
**A.** 3920 nM

**Q.** What about the GI50 (OVCAR-5 ovarian) of the same compound?
**A.** 1780 nM

**Q.** And the TGI (OVCAR-5 ovarian)?
**A.** 3200 nM

**Q.** What about the GI50 (OVCAR-8 ovarian) of the same compound?
**A.** 880 nM

**Q.** And the TGI (OVCAR-8 ovarian)?
**A.** 2470 nM

**Q.** And the GI50 (PC-3 prostate)?
**A.** 1650 nM

**Q.** And the TGI (PC-3 prostate)?
**A.** 3590 nM

**Q.** What about the GI50 (RPMI-8226 leukemia) of the same compound?
**A.** 6180 nM

**Q.** What about the TGI (RPMI-8226 leukemia) of the same compound?
**A.** 28200 nM

**Q.** What about the GI50 (RXF 393 renal) of the same compound?
**A.** 1800 nM

**Q.** What about the TGI (RXF 393 renal) of the same compound?
**A.** 5760 nM

**Q.** What about the GI50 (SF-268 CNS) of the same compound?
**A.** 1570 nM

**Q.** And the TGI (SF-268 CNS)?
**A.** 3690 nM

**Q.** And the GI50 (SF-295 CNS)?
**A.** 1740 nM

**Q.** And the TGI (SF-295 CNS)?
**A.** 3410 nM

**Q.** What about the GI50 (SF-539 CNS) of the same compound?
**A.** 3910 nM

**Q.** And the TGI (SF-539 CNS)?
**A.** 8840 nM

**Q.** What about the GI50 (SK-MEL-2 melanoma) of the same compound?
**A.** 2800 nM

**Q.** What about the GI50 (SK-MEL-28 melanoma) of the same compound?
**A.** 1240 nM

**Q.** And the TGI (SK-MEL-28 melanoma)?
**A.** 2580 nM

**Q.** And the GI50 (SK-MEL-5 melanoma)?
**A.** 2310 nM

**Q.** What about the TGI (SK-MEL-5 melanoma) of the same compound?
**A.** 5450 nM

**Q.** And the GI50 (SK-OV-3 ovarian)?
**A.** 1930 nM

**Q.** And the TGI (SK-OV-3 ovarian)?
**A.** 3480 nM

**Q.** And the GI50 (SN12C renal)?
**A.** 1010 nM

**Q.** And the TGI (SN12C renal)?
**A.** 2180 nM

**Q.** And the GI50 (SNB-19 CNS)?
**A.** 1530 nM

**Q.** What about the TGI (SNB-19 CNS) of the same compound?
**A.** 2860 nM

**Q.** What about the GI50 (SNB-75 CNS) of the same compound?
**A.** 1910 nM

**Q.** What about the TGI (SNB-75 CNS) of the same compound?
**A.** 3540 nM

**Q.** And the GI50 (SR leukemia)?
**A.** 48.2 nM

**Q.** What about the TGI (SR leukemia) of the same compound?
**A.** > 100000 nM

**Q.** And the GI50 (SW-620 colon)?
**A.** 428 nM

**Q.** What about the TGI (SW-620 colon) of the same compound?
**A.** 1570 nM

**Q.** What about the GI50 (T-47D breast) of the same compound?
**A.** 1870 nM

**Q.** What about the TGI (T-47D breast) of the same compound?
**A.** 3690 nM

**Q.** What about the GI50 (TK-10 renal) of the same compound?
**A.** 17400 nM

**Q.** What about the TGI (TK-10 renal) of the same compound?
**A.** 32500 nM

**Q.** What about the GI50 (U251 CNS) of the same compound?
**A.** 1510 nM

**Q.** What about the TGI (U251 CNS) of the same compound?
**A.** 3040 nM

**Q.** What about the GI50 (UACC-257 melanoma) of the same compound?
**A.** 1700 nM

**Q.** And the TGI (UACC-257 melanoma)?
**A.** 3690 nM

**Q.** And the GI50 (UACC-62 melanoma)?
**A.** 1470 nM

**Q.** What about the TGI (UACC-62 melanoma) of the same compound?
**A.** 2910 nM

**Q.** And the GI50 (UO-31 renal)?
**A.** 1440 nM

**Q.** What about the TGI (UO-31 renal) of the same compound?
**A.** 2850 nM
